Results: patent US5362497A, “Transdermal therapeutic composition” (priority 1989, dated 1994)

What was measured:
Format in all cases: in vivo, SD rats
[1] = Molsidomine concentration in plasma after transdermal application (HPLC)
Method: The above transdermal therapeutic composition was put on a clipped abdomen of male SD rats (7-week-old, 240 to 270 g, 5 heads) and fixed with a surgical tape. After 1, 2, 4, 6 and 24 hours, the blood was collected from the tail vein, and the concentration of molsidomine in the plasma was determined by HPLC.
On the other hand, 0.5 g of molsidomine was dissolved in 3 g of propylene glycol, and 0.35 g of the solution was absorbed into a rayon web of nonwoven fabric and applied to SD rats in the same manner as mentioned above.

[2] = Vinpocetine concentration in plasma after transdermal application (HPLC)
Method: The above transdermal therapeutic composition was put on a clipped abdomen of male SD rats (7-week-old, 240 to 270 g, 4 heads) and fixed with a surgical tape. Just before the administration and after 0.5, 1, 2, 4, 6 and 24 hours, the blood was collected from the tail vein. After the blood was treated with heparin, the plasma was separated. The concentration of vinpocetine in the plasma was determined by HPLC after the plasma was cleaned up by Sep-Pak C18 (Waters).
On the other hand, 0.35 g of 4% aqueous suspension of vinpocetine was absorbed into a web of nonwoven fabric and applied to SD rats in the same manner as mentioned above.

[3] = system: hypertensive reaction induced by angiotensin I; assay: Transdermal absorption test: inhibition of hypertensive reaction induced by angiotensin I in rats
Method: Using 9-week-old male SD rats, the transdermal therapeutic tape (6 mg as compound (I)/rat) was applied to a clipped area (6 cm^2) of the abdominal skin and the area of exposure was covered by the occluded dressing method. The transdermal absorption effect was evaluated daily by monitoring the inhibition rate (%) against hypertensive reaction induced by angiotensin I. Angiotensin I was administered in an intravenous dose of 300 ng/kg (rats).
Using 9-week-old male SD rats, the transdermal therapeutic tape (9 mg as compound (I)/rat) was applied to a clipped area (6 cm^2) of the abdominal skin and the area of exposure was covered by the occluded dressing method.

[4] = TRH concentration in plasma after transdermal application (radioimmunoassay); settings: for concentration at 0.5 h: 0.5 h after administration; for concentration at 1 h: 1 h after administration; for concentration at 2 h: 2 h after administration; for concentration at 4 h: 4 h after administration; for concentration at 6 h: 6 h after administration
Method: The above transdermal therapeutic composition was put on a clipped abdomen of male SD rats (7-week-old, 240 to 270 g, 4 heads) and fixed with a surgical tape. After 0.5, 1, 2, 4, 6 and 24 hours, the blood was collected from the tail vein. After the blood was treated with heparin, 50 μl of a reagent (aqueous solution containing 0.01 g/l of 8-hydroxyquinoline sulfate, 0.15 g/l of EDTA-2Na and 0.05 g/l of Tween 20) was added to 0.5 ml of the blood to separate the plasma. The TRH concentration in the plasma was determined by the below-mentioned radioimmunoassay. To 100 μl of the separated plasma were added 100 μl of 0.7% bovine serum albumin, 100 μl of anti-TRH antibody (500-fold dilution) and 100 μl of ^125 I-labeled TRH (about 10000 dpm), and the resulting mixture was incubated at 4° C. for 3 days. The secondary antibody (100 μl of anti-γ-globulin serum and 100 μl of normal rabbit serum) was then added, and the mixture was incubated at 4° C. for 1 day. The supernatant was removed by centrifugation at 3000 rpm, and the radioactivity of the precipitate was determined by a γ counter.
On the other hand, 10% polyvinyl alcohol gel (pH 4, buffered with 0.01M citric acid-0.01M disodium phosphate) containing 2% TRH was formulated to make the diameter and thickness 3.2 cm and 0.1 cm respectively (sticking area: 8 cm^2; TRH content: 16 mg), and applied to SD rats (4 heads) in the same manner as mentioned above. The TRH concentration in the plasma was determined by the radioimmunoassay in the same manner as mentioned above.

[5] = Example 1 tape, 6 mg as compound (I)/rat
[6] = Example 2 tape, procedure of Example 1
[7] = Example 3 tape, procedure of Example 1
[8] = Example 4 tape, 9 mg as compound (I)/rat
[9] = rat, plasma, topical or ocular, Example 6 composition
[10] = rat, plasma, topical or ocular, comparison: 10% polyvinyl alcohol gel pH 4, 2% TRH (16 mg), 8 cm^2

## CCOC(=O)[N-]c1cn(N2CCOCC2)n[o+]1 [molsidomine, N-ethoxycarbonyl-3-morpholinosydnonimine]
[1]; Example 5 composition
  concentration of molsidomine in the blood (in words): a high concentration of molsidomine in the blood was observed
[1]; comparison: solution of 0.5 g molsidomine in 3 g propylene glycol, 0.35 g on nonwoven fabric
  concentration of molsidomine in the plasma: below the detection limit
[1]; rat, plasma, topical or ocular, Example 5 composition, 1 h after administration
  concentration at 1 h: 123 ng/mL
[1]; rat, plasma, topical or ocular, Example 5 composition, 2 h after administration
  concentration at 2 h: 235 ng/mL
[1]; rat, plasma, topical or ocular, Example 5 composition, 4 h after administration
  concentration at 4 h: 451 ng/mL
[1]; rat, plasma, topical or ocular, Example 5 composition, 6 h after administration
  concentration at 6 h: 322 ng/mL
[1]; rat, plasma, topical or ocular, Example 5 composition, 24 h after administration
  concentration at 24 h: 169 ng/mL

## CCOC(=O)C1=C[C@]2(CC)CCCN3CCc4c(n1c1ccccc41)[C@@H]32 [vinpocetine, apovincamic acid ethyl ester]
[2]; Example 7 composition
  concentration of vinpocetine in the plasma (in words): rapidly increased, and the required concentration was maintained during a period of 24 hours
[2]; Example 7 composition, just before administration
  Average concentration in plasma: 0 ng/mL
[2]; comparison: 0.35 g of 4% aqueous suspension of vinpocetine on nonwoven fabric
  concentration of vinpocetine in the plasma: below the detection limit
[2]; rat, plasma, topical or ocular, Example 7 composition, 0.5 h after administration
  concentration at 0.5 h: 149 ng/mL
[2]; rat, plasma, topical or ocular, Example 7 composition, 1 h after administration
  concentration at 1 h: 155 ng/mL
[2]; rat, plasma, topical or ocular, Example 7 composition, 2 h after administration
  concentration at 2 h: 80.1 ng/mL
[2]; rat, plasma, topical or ocular, Example 7 composition, 4 h after administration
  concentration at 4 h: 60.7 ng/mL
[2]; rat, plasma, topical or ocular, Example 7 composition, 6 h after administration
  concentration at 6 h: 74.1 ng/mL
[2]; rat, plasma, topical or ocular, Example 7 composition, 24 h after administration
  concentration at 24 h: 64.3 ng/mL

## O=C(O)CN1C(=O)[C@@H](N[C@@H](CCCCC2CCNCC2)C(=O)O)CSc2ccccc21 [Compound (I), (R)-3-[(S)-1-carboxy-5-(4-piperidyl)pentyl]amino-4-oxo-2,3,4,5-tetrahydro-1,5-benzothiazepine-5-acetic acid]
[3]; [5]
  duration of effect (inhibition of hypertensive reactivity induced by angiotensin I): > 24 h
  transdermal absorption: sufficiently absorbed transdermally
[3]; Example 1 tape, 6 mg as compound (I)/rat, abdominal skin 6 cm^2, angiotensin I 300 ng/kg i.v.
  initiation time of 80% inhibition against hypertensive reactivity induced by angiotensin I: five
[3]; Example 1 tape, 6 mg as compound (I)/rat, five hours after administration
  inhibition against hypertensive reactivity induced by angiotensin I: 80%
[3]; [6]
  duration of effect (inhibition of hypertensive reaction by angiotensin I): > 24 h
  initiation time of 80% inhibition against hypertensive reaction by angiotensin I: three
  transdermal absorption: sufficiently absorbed transdermally
[3]; Example 2 tape, three hours after administration
  inhibition against hypertensive reaction by angiotensin I: 80%
[3]; Example 3 tape, five hours after administration
  inhibition against hypertensive reaction by angiotensin I: 80%
[3]; [7]
  duration of effect (inhibition of hypertensive reaction by angiotensin I): > 24 h
  initiation time of 80% inhibition against hypertensive reaction by angiotensin I: five
  transdermal absorption: sufficiently absorbed transdermally
[3]; [8]
  duration of effect (inhibition of hypertensive reactivity by angiotensin I): > 24 h
  transdermal absorption: sufficiently absorbed transdermally
[3]; Example 4 tape, 9 mg as compound (I)/rat, abdominal skin 6 cm^2
  initiation time of 80% inhibition against hypertensive reactivity by angiotensin I: five
[3]; Example 4 tape, 9 mg as compound (I)/rat, five hours after administration
  inhibition against hypertensive reactivity by angiotensin I: 80%

## NC(=O)[C@@H]1CCCN1C(=O)[C@H](Cc1cnc[nH]1)NC(=O)[C@@H]1CCC(=O)N1 [TRH, L-pyroglutamyl-L-histidyl-L-prolinamide]
[4]; Example 6 composition
  TRH concentration in the plasma (in words): rapidly increased
[4]; comparison: 10% polyvinyl alcohol gel pH 4, 2% TRH (16 mg), 8 cm^2
  TRH concentration in the plasma (in words): very low
[4]; [9]
  concentration at 0.5 h: 59 ng/mL
  concentration at 1 h: 88.9 ng/mL
  concentration at 2 h: 110 ng/mL
  concentration at 4 h: 391 ng/mL
  concentration at 6 h: 326 ng/mL
[4]; rat, plasma, topical or ocular, Example 6 composition, 24 h after administration
  concentration at 24 h: 82.4 ng/mL
[4]; rat, plasma, topical or ocular, Example 6 composition, read-out: maximum concentration in the plasma
  Cmax: ~400 ng/mL
[4]; rat, plasma, topical or ocular, Example 6 composition, read-out: time of maximum concentration in the plasma
  Tmax: 4 h
[4]; [10]
  concentration at 0.5 h: 8.3 ng/mL
  concentration at 1 h: 8 ng/mL
  concentration at 2 h: 4.5 ng/mL
  concentration at 4 h: 3 ng/mL
  concentration at 6 h: 1.8 ng/mL
